Literature values in patent publication US8563051B2, “Herbal composition for weight management” (InQpharm Sdn Bhd, priority 2005, dated 2013).
Like-named read-outs stand apart in the source and are kept apart here.

Tests used:
[1] = rodents
[2] = tested on: Ehrlich ascites tumor cell; conditions: in vitro
[3] = 8-week human clinical study, 26 subjects
[4] = human clinical trial; blood levels not measured
[5] = doses in the range of 1 to 5 grams a day
[6] = human clinical weight loss trial

sodium salt of hydroxycitric acid
food intake and weight [1]: reduce food intake and cause weight loss

C[C@H]1[C@H](C)CC[C@]2(C(=O)O)CC[C@]3(C)C(=CC[C@@H]4[C@@]5(C)C[C@@H](O)[C@H](O)C(C)(C)[C@@H]5CC[C@]43C)[C@H]12 [Corosolic acid, 2-hydroxyursolic acid]
glucose transport activity [2]: stimulate significant glucose transport activity
glucose tolerance and blood sugar levels [3]: improved glucose tolerance and improved blood sugar levels

O=C([O-])C[C@@](O)(C(=O)[O-])[C@H](O)C(=O)[O-].O=C([O-])C[C@@](O)(C(=O)[O-])[C@H](O)C(=O)[O-].[Ca+2].[Ca+2].[Ca+2] [calcium salt of hydroxycitric acid]
weight loss [4]: ineffective for weight loss

O=C(O)CC(O)(C(=O)O)C(O)C(=O)O (single isomer, unassigned; (-)) [HCA, (−)hydroxycitric acid]
safety assessment [5]: no relevant safety issues

O=C([O-])CC(O)(C(=O)[O-])C(O)C(=O)[O-].[Ca+2].[K+] (stereo not drawn) [calcium and potassium hydroxycitrate]
weight loss [6]: shown to be effective
